Assay results taken from patent US11873298B2, “Compounds and uses thereof” (JANSSEN PHARMACEUTICA NV, priority 2017, dated 2024).
“And” between values parts separate entries of the source, which are not always exact repeats. Equal values may be shown once.

How the values were obtained:
Type in all cases: cell-based
Ole1 = target: T1, Ole1 (Saccharomyces cerevisiae, UniProt P21147); assay: Growth inhibition of yeast strain expressing Ole1 as sole desaturase; conditions: for IC50 / OLE1 % Max Inhibition: yeast strain expressing Ole1 as sole desaturase
T1 construct: expressed in transfected cells; host or cells: S. cerevisiae ole1Δ strain (W303 pdr1Δ pdr3Δ background), plasmid pRS316 with TDH3 promoter and CYC1 terminator
T1 sequence (P21147 1-510): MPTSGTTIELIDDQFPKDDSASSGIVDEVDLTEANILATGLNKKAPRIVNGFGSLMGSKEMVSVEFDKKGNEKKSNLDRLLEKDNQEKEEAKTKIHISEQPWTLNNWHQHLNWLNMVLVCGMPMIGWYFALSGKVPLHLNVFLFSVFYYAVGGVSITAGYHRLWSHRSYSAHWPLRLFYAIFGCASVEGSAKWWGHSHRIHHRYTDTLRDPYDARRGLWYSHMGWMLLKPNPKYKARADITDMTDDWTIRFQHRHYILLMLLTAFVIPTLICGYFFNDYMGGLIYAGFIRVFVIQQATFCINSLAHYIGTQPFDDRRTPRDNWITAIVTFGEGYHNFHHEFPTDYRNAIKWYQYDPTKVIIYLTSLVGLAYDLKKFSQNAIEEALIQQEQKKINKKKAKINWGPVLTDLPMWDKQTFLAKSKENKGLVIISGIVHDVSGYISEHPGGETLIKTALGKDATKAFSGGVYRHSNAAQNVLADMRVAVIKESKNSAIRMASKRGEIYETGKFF
Protocol: Strain oleΔ (yeast ole1 deletion mutant) was constructed by deleting OLE1 with NAT-MX6 in BY4741, amplifying the deletion cassette from the genomic DNA of the resulting strain with primers flanking the ORF by 1000 bp upstream and downstream, transforming the resulting deletion cassette into W303 pdr1Δ pdr3Δ, and plating transformants on YPD media containing G418 (200 μg/mL) and nourseothricin ([…]) with 0.01% TWEEN®-20 and 0.5 mM oleic and palmitoleic acids.
The coding sequence of yeast OLE1 was also cloned into this plasmid). These clones were then transformed into the ole1Δ strain and plated on CSM-Ura media (CSM lacking uracil) with 2% glucose (w/v) and independent colonies were isolated and amplified.
All compound profiling experiments were performed using the same basic protocol. Different genetic backgrounds (e.g., gene deletions) or conditions (e.g., addition of oleic and palmitoleic acid) were replaced as indicated below.
Yeast were cultured using standard techniques in complete synthetic media (CSM) and yeast nitrogen base supplemented with 2% (w/v) carbon source (glucose, raffinose, or galactose) to regulate the expression of the toxic disease protein. An initial starter culture was inoculated in 3 mL CSM-Glucose media and incubated overnight in a 30° C. shaker incubator (225 rpm). Saturated morning cultures were then diluted 1:20 in fresh CSM-Raffinose media and grown for 6 h to an OD600 (optical density) of ˜0.4-0.8 at 30° C. with shaking.
Compound administration was performed in two separate steps. First, 15 μL of CSM-Galactose (induces expression of toxic protein) was dispensed into clear 384 well assay plates using a MULTIDROP™ Combi reagent dispenser. […] The cultures described above were then diluted to a 2× concentration (0.03 and 0.08 for alpha-synuclein and ApoE, final ODsoo of 0.015 and 0.04) in CSM-Galactose. For wild-type and Ole1/SCD1/SCD5 plasmid-containing strains, the 2× cell density was 0.02. […] For 96-well assays (FIGS. 1A and 1B), compound dilutions in DMSO were generated in 96 well plates and 1 μL was manually pipetted into 96 well clear bottom assay plates.
For experiments using a plasmid-borne copy of Ole1, SCD1, or SCD5 (FIGS. 3B, 6, and 7), media lacking uracil (SX-Ura, where X is glucose, raffinose, or galactose), was used for all steps of the compound profiling protocol to ensure its maintenance throughout the assay.
After yeast delivery, assay plates were incubated under humidified conditions at 30° C. for 24 to 40 h. ApoE4 rescue experiments were stopped at 24 h, aSyn experiments at 40 h, Ole1 at 24 h, and SCD1/SCD5 at 40 h. The growth of yeast was monitored by reading the ODsoo of each well using a microplate reader (Perkin Elmer EnVision™).

SCD1 = target: T2, SCD1 (Homo sapiens, UniProt O00767); assay: Growth inhibition of humanized yeast strain expressing SCD1 as sole desaturase; conditions: for IC50 / SCD1 % Max Inhibition: humanized yeast strain expressing SCD1
T2 construct: host or cells: S. cerevisiae ole1Δ strain (W303 pdr1Δ pdr3Δ background), plasmid pRS316 with TDH3 promoter and CYC1 terminator
T2 sequence (O00767 1-359): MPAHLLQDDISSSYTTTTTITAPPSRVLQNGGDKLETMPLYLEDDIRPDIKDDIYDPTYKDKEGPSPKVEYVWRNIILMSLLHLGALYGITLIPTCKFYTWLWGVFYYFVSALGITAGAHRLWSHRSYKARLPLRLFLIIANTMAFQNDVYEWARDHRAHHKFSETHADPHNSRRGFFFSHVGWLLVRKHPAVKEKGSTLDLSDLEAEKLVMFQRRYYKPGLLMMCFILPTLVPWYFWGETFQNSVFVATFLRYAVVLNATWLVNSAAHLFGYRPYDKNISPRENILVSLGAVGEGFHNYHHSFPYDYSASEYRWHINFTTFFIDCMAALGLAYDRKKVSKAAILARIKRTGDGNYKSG
How it was run: (§1)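 OD600 growth read-out. ole1Δ yeast, pdr1Δ pdr3Δ, with Ole1/SCD1/SCD5 on a plasmid; SX-Ura media throughout; 2× cell density 0.02 in CSM-Galactose; DMSO compound dilutions; humidified 30° C.; Ole1 stopped at 24 h, SCD1/SCD5 at 40 h.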

SCD5 = target: T3, SCD5 (Homo sapiens, UniProt Q86SK9); assay: Growth inhibition of humanized yeast strain expressing SCD5 as sole desaturase; conditions: for IC50 / SCD5 % Max Inhibition: humanized yeast strain expressing SCD5
T3 construct: host or cells: S. cerevisiae ole1Δ strain (W303 pdr1Δ pdr3Δ background), plasmid pRS316 with TDH3 promoter and CYC1 terminator
T3 sequence (Q86SK9 1-330): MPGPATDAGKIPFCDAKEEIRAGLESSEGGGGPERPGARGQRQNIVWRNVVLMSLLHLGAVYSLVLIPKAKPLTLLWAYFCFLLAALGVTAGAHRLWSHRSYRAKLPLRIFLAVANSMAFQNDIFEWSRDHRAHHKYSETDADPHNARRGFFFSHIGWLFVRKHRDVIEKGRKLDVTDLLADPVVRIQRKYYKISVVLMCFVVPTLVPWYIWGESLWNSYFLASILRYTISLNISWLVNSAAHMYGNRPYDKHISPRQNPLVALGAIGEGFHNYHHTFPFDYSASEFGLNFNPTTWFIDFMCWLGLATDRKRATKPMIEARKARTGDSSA
How it was run: as §1

Cc1nn(C)c2cc(-c3noc(C4CCN(C(=O)CN5Cc6ccccc6C5=O)CC4)n3)ccc12 [Compound 165]
IC50 (Ole1): > 45 µM
OLE1 % Max Inhibition (Ole1): 2.01%
IC50 (SCD1): > 45 µM
SCD1 % Max Inhibition (SCD1): 94.44%
IC50 (SCD5): > 45 µM
SCD5 % Max Inhibition (SCD5): 80.23%

Cc1nn(C)c2cc(-c3noc(N4CCN(C(=O)[C@H]5CC(=O)N(c6ccccc6)C5)CC4)n3)cnc12 [Compound 246]
IC50 (Ole1): > 45 µM
OLE1 % Max Inhibition (Ole1): 13.06%
SCD1 % Max Inhibition (SCD1): 77.22%
IC50 (SCD5): > 45 µM
SCD5 % Max Inhibition (SCD5): 66.03%

CC(C)c1ccc(C(=O)N2CCC(c3nc(N4CC5(CCCO5)C4)no3)CC2)cc1 [Compound 336]
IC50 (Ole1): > 45 µM
OLE1 % Max Inhibition (Ole1): 86.7%
SCD1 % Max Inhibition (SCD1): 56.9%
IC50 (SCD5): > 45 µM
SCD5 % Max Inhibition (SCD5): 74.1%

Cc1nnc(-c2ccc(N3CCC(Oc4ccccc4C(F)(F)F)CC3)nn2)s1 [MF-438, reference compound]
growth of yeast expressing OLE1 in presence of inhibitor (Ole1; FIG. 6): resistant
half-maximal inhibitory concentration (IC50) (SCD1; SCD1 humanized strain, FIG. 6): low nanomolar
half-maximal inhibitory concentration (IC50) (SCD5; SCD5 humanized strain, FIG. 6): low nanomolar

Cc1ccc(N2CC(C(=O)N3CCC(c4nc(-c5ccc6c(C)nn(C)c6c5)no4)CC3)CC2=O)cn1 (centres unmarked) [Compound 179]
IC50 (Ole1): 38.7 µM
OLE1 % Max Inhibition (Ole1): 76.70%
IC50 (SCD1): > 45 µM
SCD1 % Max Inhibition (SCD1): 106.53%
IC50 (SCD5): > 45 µM
SCD5 % Max Inhibition (SCD5): 85.02%

Cc1nn(C)c2cc(-c3noc(C4CCN(C(=O)N[C@@H]5C[C@@H]5c5ccccc5)CC4)n3)ccc12 [Compound 329]
IC50 (Ole1): > 45 µM
OLE1 % Max Inhibition (Ole1): 12.5%
SCD1 % Max Inhibition (SCD1): 16.2%
IC50 (SCD5): > 45 µM
SCD5 % Max Inhibition (SCD5): 13.4%

CCc1nn(C)c2cc(-c3noc(C4CCN(C(=O)CNC(=O)c5ccccc5)CC4)n3)ccc12 [Compound 309]
IC50 (Ole1): > 45 µM
OLE1 % Max Inhibition (Ole1): 8.0%
SCD1 % Max Inhibition (SCD1): 80.6%
IC50 (SCD5): > 45 µM
SCD5 % Max Inhibition (SCD5): 14.7%

CCN1C(=O)COc2ccc(-c3nc(C4(c5ccccc5)CC4)no3)cc21 [Compound 159]
IC50 (Ole1): > 45 µM
OLE1 % Max Inhibition (Ole1): 46.92%
IC50 (SCD1): 38.9 µM
SCD1 % Max Inhibition (SCD1): 70.17%
IC50 (SCD5): 13.9 µM
SCD5 % Max Inhibition (SCD5): 10.25%

Cc1nn(C)c2cc(-c3noc(C4CCN(C(=O)C5CC(=O)N(c6ccc(F)cc6)C5)CC4)n3)ccc12 (centres unmarked) [Compound 188]
IC50 (Ole1): > 45 µM
OLE1 % Max Inhibition (Ole1): 4.70%
IC50 (SCD1): > 45 µM
SCD1 % Max Inhibition (SCD1): 78.63%
IC50 (SCD5): > 45 µM
SCD5 % Max Inhibition (SCD5): 4.51%

Cc1nn(C)c2cc(-c3noc(C4CCN(C(=O)Oc5ccccc5)CC4)n3)ccc12 [Compound 272]
IC50 (Ole1): > 45 µM
OLE1 % Max Inhibition (Ole1): 40.3%
SCD1 % Max Inhibition (SCD1): 70.8%
IC50 (SCD5): > 45 µM
SCD5 % Max Inhibition (SCD5): 51.9%

O=C(c1ccccc1)N1CCC(c2nc(N3CC4(COC4)C3)no2)CC1 [Compound 334]
IC50 (Ole1): > 45 µM
OLE1 % Max Inhibition (Ole1): 84.4%
SCD1 % Max Inhibition (SCD1): 49.3%
IC50 (SCD5): > 45 µM
SCD5 % Max Inhibition (SCD5): 66.7%

Cc1ccc(N2C[C@H](C(=O)N3CCC(c4nc(-c5ccc6c(C)nn(C)c6c5)no4)CC3)CC2=O)nc1 [Compound 303]
IC50 (Ole1): > 45 µM
OLE1 % Max Inhibition (Ole1): 14.2% and 8.50%
IC50 (SCD1): ≥ 45 µM
SCD1 % Max Inhibition (SCD1): 94.3% and 65%
IC50 (SCD5): > 45 µM
SCD5 % Max Inhibition (SCD5): 15.6% and 20.68%

CCOc1cnc(-c2noc(C3CCN(C(=O)CNC(=O)c4ccccc4)CC3)n2)nc1OC [Compound 166]
IC50 (Ole1): > 45 µM
OLE1 % Max Inhibition (Ole1): 105.73%
IC50 (SCD1): > 45 µM
SCD1 % Max Inhibition (SCD1): 90.07%
IC50 (SCD5): > 45 µM
SCD5 % Max Inhibition (SCD5): 68.87%

CCOc1ccc(-c2noc(C3CCN(C(=O)CN4Cc5ccc(F)cc5C4=O)CC3)n2)cc1OC [Compound 177]
IC50 (Ole1): > 45 µM
OLE1 % Max Inhibition (Ole1): 40.70%
IC50 (SCD1): > 45 µM
SCD1 % Max Inhibition (SCD1): 97.88%
IC50 (SCD5): > 45 µM
SCD5 % Max Inhibition (SCD5): 86.13%

N#Cc1cccc(N2CC(C(=O)N3CCC(c4nc(Cl)no4)CC3)CC2=O)c1 (centres unmarked) [Compound 350]
IC50 (Ole1): > 45 µM
OLE1 % Max Inhibition (Ole1): 71.00%
SCD5 % Max Inhibition (SCD5): 56.3%

CC(C)c1ccc(C(=O)N2CCC(c3nc(Cl)no3)CC2)cc1 [Compound 352]
IC50 (Ole1): > 45 µM
OLE1 % Max Inhibition (Ole1): 71.57%
IC50 (SCD5): > 45 µM
SCD5 % Max Inhibition (SCD5): 44.5%

CC(C)n1ncc2ccc(-c3noc(C4CCN(C(=O)c5ccccc5Cl)CC4)n3)cc21 [Compound 345]
IC50 (Ole1): > 45 µM
OLE1 % Max Inhibition (Ole1): 6.63%
IC50 (SCD5): > 45 µM
SCD5 % Max Inhibition (SCD5): 2.2%
